The values that follow come from patent publication US20260183297A1, “SELECTION OF PATIENTS FOR THE TREATMENT OF FADS1-MEDIATED DISEASES OR DISORDERS USING FADS-1 INHIBITORS” (AMGEN INC., priority 2022, published 2026).

Read-outs that look alike come from different tables or passages of the source.

Assay [1] addresses T1, FADS1 (Mus musculus, UniProt Q920L1).
T1 construct: Liver from ^13C5-DGLA dosed DIO mice was collected for pharmacodynamic (PD) analysis; from tissue; host or cells: living DIO C57Bl/6 mice; 13C5-DGLA to 13C5-AA conversion read in liver (A4) or blood plasma (A5)
T1 sequence (Q920L1 1-447): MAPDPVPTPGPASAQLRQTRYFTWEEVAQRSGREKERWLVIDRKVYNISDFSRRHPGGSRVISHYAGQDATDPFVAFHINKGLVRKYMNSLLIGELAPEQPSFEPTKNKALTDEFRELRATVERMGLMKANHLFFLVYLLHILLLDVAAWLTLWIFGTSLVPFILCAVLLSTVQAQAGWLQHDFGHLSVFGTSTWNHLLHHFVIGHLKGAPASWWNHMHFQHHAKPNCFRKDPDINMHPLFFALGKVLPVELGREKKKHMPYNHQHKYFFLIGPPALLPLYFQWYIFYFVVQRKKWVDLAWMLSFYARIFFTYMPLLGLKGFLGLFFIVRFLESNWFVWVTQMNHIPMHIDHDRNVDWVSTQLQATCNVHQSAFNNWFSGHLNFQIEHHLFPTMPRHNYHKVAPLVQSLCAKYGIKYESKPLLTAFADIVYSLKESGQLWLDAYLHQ
The assay is described as follows: In vivo FADS1 activity measurement using the liver (13C5-DGLA to 13C5-AA conversion). The settings on record: DIO mice, single oral dose 30 mg/kg, 24 hours after dosing; for inhibition at 30 mg/kg: mouse, read-out: Liver Avg % Inhibition. Here is the method:
Mice were then dosed by intraperitoneal injection with a solution comprising of a mixture of 0.1 ml solution of ^13C5-DGLA (2 mM in 18.42 mM Na2CO3 buffer). Necropsy were performed at 30 minutes post ^13C5-DGLA dosing. Liver from ^13C5-DGLA dosed DIO mice was collected for pharmacodynamic (PD) analysis and EDTA plasma was collected for compound exposure determination. For PD analysis, 150 mg of frozen liver tissue were premixed with ALA-D14 as an internal standard. Liver samples were homogenized and extracted twice with chloroform/methanol (2:1) solution. The organic phases for the two extractions were pooled and evaporated to dryness under nitrogen gas. The liver extract was resuspended in 200 μl 2N NaOH and saponified at 65° C. for 1 hour. After cooling to room temperature, 100 μl of formic acid was added and the mixture was subjected to two consecutive extractions with a chloroform:methanol (2:1) solution. The pooled organic phases were evaporated to dryness under nitrogen gas and resuspended in a solution containing acetonitrile and methanol at a ratio of 1:1. The extracts were then analyzed by LC/MS/MS for the following analytes: ^13C5-DGLA, ^13C5-AA, with ALA-d14 as the internal standard. The sample (20 μl) was injected onto a Poroshell 120 EC-C18 3.0×50 mm, 1.9 μm id column (Agilent, Santa Clara, CA). The analyte peak areas were quantified using the Analyst software (SCIEX, Framingham, […]). The residual in vivo FADS1 activity was calculated by taking the percent of substrate to product conversion normalized to the vehicle group to determine the percent of control (POC) and the percent inhibition relative to control (vehicle).
To determine the degree of FADS1 inhibition, the in vivo FADS1 activity as the percent of conversion calculated using the following equation: […]
The data were then normalized to the vehicle group to determine the percent of inhibition relative to control (vehicle) by the following equation: […]
To calculate the in vivo potency, dose response graphs were generated by plotting the plasma concentration of the test compound determined from the PK analysis on the abscissa, against the percent of control (POC, relative to vehicle) of the FADS1 activity for each mouse. The data points were then fitted by using the log(inhibitor) vs response nonlinear regression algorithm using GraphPad Prism (version 8.4.3, San Diego CA) to calculate the in vivo IC50 (total).
Free (unbound) IC50 and IC90 values were calculated by first calculating the unbound compound concentration in the plasma by multiplying the plasma concentration of test compound with the fraction unbound (fu) value in mouse plasma determined in the plasma protein binding study. A dose response curve was used to determine the unbound IC50 and IC90 by plotting the unbound plasma concentration of the compound on the abscissa, against the percent of control (POC, relative to vehicle) of FADS1 activity for each mouse. The data points were then fitted with a log (inhibitor) versus response nonlinear regression algorithm using GraphPad Prism (version 8.4.3, San Diego, CA) to calculate the in vivo IC50 (Free).

Assay [2] addresses T1, FADS1. The assay is described as follows: In vivo FADS1 activity measurement using blood plasma (13C5-DGLA to 13C5-AA conversion). The settings on record: for Plasma Avg % Conversion / inhibition at 30 mg/kg: DIO mice, single oral dose 30 mg/kg, 24 hours after dosing. Here is the method:
FADS1 activity in the presence of Compounds B-E was also measured using blood plasma (in addition to using the liver). The above procedures were perforned to measure the in vivo activity of FADS1 using the liver. The following general procedures were used to measure FADS1 activity using blood plasma. Diet-induced obese (DIO) mice that were on 12 weeks of high fat diet were used to determine the pharmacokinetic (PK) and pharmacodynamic (PD) properties of test compounds. To determine the target coverage at 24 hours after dosing with a test compound (e.g., Compounds B-E, shown below), mice were IP dosed with 0.1 ml solution of ^13C5-DGLA (2 mM in 18.42 mM Na2CO3 buffer). Necropsy were performed at 30 minutes post ^13C5-DGLA dosing. EDTA Plasma was collected for PK and PD analysis.
For PD analysis, 50 μl of plasma or standards (pooled untreated mouse plasma with ^13C5-DGLA and ^13C5-AA added at concentration of 4.57 nM to 10 uM) were mixed with 10 μl of 90% methanol and 10 μl of 50 μg/mL of ALA-D14 as an internal standard (100 μM alpha-linolenic acid-d14 (ALA-d14, Cayman Chemical)) in a 96 well plate. 490 μl of chloroform:methanol (2:1) were added to each well. Plates were plated on a shaker for 5 min prior to adding 66.5 μl water. The plates were shaken for another 5 minutes, followed by centrifugation at 2000 RPM for 5 minutes. The bottom organic layer was transferred to a clean 96 well plate. 333 ul of chloroform:methanol (2:1) were added to the to the remaining liquid phase in the original plate. After 5 min of shaking, the plate was centrifuged at 2000 RPM for 5 minutes. The bottom layer was collected and combined with the first bottom layer. The combined layers were evaporated to dryness under a constant stream of nitrogen gas. After the plate has been dried, 100 μl of 2N NaOH was added to the mixture for subsequent saponification at 65° C. for 1 hour. The samples were then cooled to room temperature and the mixture was then acidified with 50 μl of formic acid followed by two consecutive chloroform:methanol (2:1) extractions. 500 μl of Chloroform:methanol (2:1) was added and the mixture thoroughly mixed by shaking. The plate was then centrifuged at 2,000 rpm for 5 min. The bottom chloroform phase was transferred to a new 2 mL 96 well plate and the remaining aqueous layer was extracted with another 250 μl of chloroform:methanol (2:1). The organic extracts were combined, and the solvent was evaporated to dryness by placing the plate under nitrogen. Extracts were then dissolved in 200 μl of acetonitrile/methanol (1:1). The plate was placed on a shaker for 30 minutes to ensure thorough mixing and dissolution of the extracted fatty acids. The plate was then centrifuged at 2000 RPM for 5 minutes. 80 μl of the samples were transferred to a new 96 well polypropylene plate for analysis on a LC-MS/MS for the following analytes: ^13C5-DGLA, ^13C5-AA, with ALA-d14 as the internal standard. Briefly describing the LC-MS/MS method: 20 μl of sample was injected onto a Poroshell 120 EC-C18 3.0×50 mm, 1.9 μm id column. Mobile phases were 80% acetonitrile containing 5 mM ammonium acetate for mobile phase A and 99.5% acetonitrile containing 5 mM ammonium acetate for mobile phase B. The LC gradient was a 3 min long method at a flow rate of 0.4 mL/minute consisting of 45% B at 0 to 0.5 min, followed by a 45% B to 100% B from 0.5 to 2.0 min; the system was then maintained at 100% B from 2.0 min to 2.5 min and returned to 45% B at 2.6 min and maintained until end of the method. The analyte peak areas were quantified by using the SCIEX Analyst software. To determine the degree of FADS1 inhibition, the in vivo FADS1 activity, POC, percent of inhibition, and in vivo IC50 values are calculated as described above for liver FADS1 activity measurement.

The conditions of assay [3]: HFD-fed DIO C57BL/6J mice; cited from earlier work.
For assay [4] the following is noted: C57BL/6 DIO mice; cited from earlier work.

A word on the inhibition: it is the relative decrease from the control value, in per cent. As to `O=c1c(-c2ccc(OCC(F)(F)F)cc2)c(C(F)(F)F)nc2cc(CO)ccn12` [Compound D], in assay [1], the “Liver Avg % Conversion” value worked out at 34.5%. The values for the inhibition at 30 mg/kg in assay [1] and in assay [2] (mouse) were 58.7% and 58.3%, respectively. Moreover, the “Plasma Avg % Conversion” value in assay [2] came out at 25.1%.

For `COc1ccn2c(=O)c(-c3ccc(O[C@H](C)C#N)cc3)c(C(F)(F)F)nc2n1` [Compound E], in assay [1], the “Liver Avg % Conversion” value is listed as 78.7% and the inhibition at 30 mg/kg worked out at 5.8%. Also, the “Plasma Avg % Conversion” value in assay [2] came to 58.1%. In addition, in assay [2] (mouse), the inhibition at 30 mg/kg is 3.7%.

As a reminder, the IC50 is the midpoint of a concentration-inhibition curve. By IC90 is commonly meant the concentration at which the effect reaches the 90% level. As to `O=c1c(-c2cnn(CC(F)(F)C(F)(F)F)c2)c(C(F)(F)F)nc2cc(OCF)ccn12` [Compound F], in assay [2] (blood plasma, unbound plasma concentration), the “Free (unbound) in vivo IC95” value was found to be 16.4 nM. Besides, in assay [2] (blood plasma, unbound plasma concentration, read-out: Free (unbound) in vivo IC50), the IC50 amounted to 5.62 nM. In addition, the IC90 in assay [2] (mouse, blood plasma, unbound plasma concentration, read-out: Free (unbound) in vivo IC90) turned out to be 12.4 nM.

Consider `COc1ccc2c(c1)c(CC(=O)O)c(C)n2C(=O)c1ccc(Cl)cc1` [indomethacin], for which, in assay [3], the body weight result is “reduce body weight” and the insulin sensitivity entry is reported as “improve insulin sensitivity”.

As to `Cc1c(C(=O)NN2CCCCC2)nn(-c2ccc(Cl)cc2Cl)c1-c1ccc(Cl)cc1` [rimonabant], in assay [4], the adipose tissue inflammation result is listed as “reduced adipose tissue inflammation”, the body weight entry is reported as “reduce body weight” and the physical activity entry is on record as “increased physical activity only in the light cycle”.
